The numbers were not newly measured in publication PMC6318333, “A chemical biology toolbox to study protein methyltransferases and epigenetic signaling” (Nature Communications, 2019), which cites them from elsewhere.

In general, IC50 refers to the midpoint of a concentration-inhibition curve.

The target in the data set is T1, SMYD3 (Homo sapiens, UniProt Q9H7B4).
T1 sequence (Q9H7B4 1-428): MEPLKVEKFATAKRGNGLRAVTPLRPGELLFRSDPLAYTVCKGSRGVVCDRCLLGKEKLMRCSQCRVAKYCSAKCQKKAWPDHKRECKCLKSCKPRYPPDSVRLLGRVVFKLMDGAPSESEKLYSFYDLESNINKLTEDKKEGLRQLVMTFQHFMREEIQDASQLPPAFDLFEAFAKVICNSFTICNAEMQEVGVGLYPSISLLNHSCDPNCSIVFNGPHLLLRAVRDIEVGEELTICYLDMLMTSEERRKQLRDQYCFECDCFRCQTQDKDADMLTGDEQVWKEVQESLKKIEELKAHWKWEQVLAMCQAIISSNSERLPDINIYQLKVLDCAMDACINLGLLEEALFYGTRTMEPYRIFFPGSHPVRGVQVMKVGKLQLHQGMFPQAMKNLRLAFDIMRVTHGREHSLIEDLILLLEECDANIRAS
The data set is described as follows: biochemical methyltransferase assay with recombinant protein. Particulars: read-out: In vitro IC50 or Kd.

Regarding BAY-6035, the IC50 was 88 nM.
